pIC50: −log10 of the molar value.
Target: T1, CB1 receptor (Homo sapiens, UniProt P21554)
T1 construct: expressed in transfected cells
Test: [35S]-GTPγS binding assay on membranes from cells stably transfected with the CB1 gene, inhibition of agonist CP55940 (EC80)
Assay type: biochemical
Settings: half maximal inhibition of GTPγS binding in presence of EC80 concentration of CP55940; 30° C., 45 min
Description: The compound of the present invention is active against the receptor product of the CB1 gene. The affinity of the compounds of the invention for central cannabinoid receptors is demonstrable in methods described in Devane et al, Molecular Pharmacology, 1988, 34,605 or those described in WO01/70700 or EP 656354. Alternatively the assay may be performed as follows.
10 μg of membranes prepared from cells stably transfected with the CB1 gene were suspended in 200 μl of 100 mM NaCl, 5 mM MgCl2, 1 mM EDTA, 50 mM HEPES (pH 7.4), 1 mM DTT, 0.1% BSA and 100 μM GDP. To this was added an EC80 concentration of agonist (CP55940), the required concentration of test compound and 0.1 μCi [^35S]-GTPγS. The reaction was allowed to proceed at 30° C. for 45 min. […] Filters were then covered with scintilant and counted for the amount of [^35S]-GTPγS retained by the filter.
Activity is measured in the absence of all ligands (minimum activity) or in the presence of an EC80 concentration of CP55940 (maximum activity). […] At various concentrations of novel ligand, activity is calculated as a percentage of the maximum activity and plotted. The data are fitted using the equation y=A+((B−A)/1+((C/x) ÙD)) and the IC50 value determined as the concentration required to give half maximal inhibition of GTPγS binding under the conditions used.

T1 sequence (P21554 whole entry): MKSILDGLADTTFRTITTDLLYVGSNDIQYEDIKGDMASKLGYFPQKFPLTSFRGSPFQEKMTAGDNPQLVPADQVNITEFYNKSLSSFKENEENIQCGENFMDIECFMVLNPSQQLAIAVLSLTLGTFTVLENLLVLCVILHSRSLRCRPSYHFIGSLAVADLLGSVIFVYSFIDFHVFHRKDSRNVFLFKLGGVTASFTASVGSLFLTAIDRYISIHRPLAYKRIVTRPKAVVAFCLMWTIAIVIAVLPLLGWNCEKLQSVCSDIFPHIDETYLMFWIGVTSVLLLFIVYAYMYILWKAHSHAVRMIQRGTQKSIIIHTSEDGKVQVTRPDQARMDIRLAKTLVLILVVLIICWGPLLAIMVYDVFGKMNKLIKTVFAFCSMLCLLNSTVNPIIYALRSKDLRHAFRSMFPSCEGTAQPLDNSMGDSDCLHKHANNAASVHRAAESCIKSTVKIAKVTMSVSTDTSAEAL

Molecule `O=C(N[C@@H]1CCCC[C@@H]1O)c1nn(-c2ccc(Cl)cc2Cl)c(-c2ccc(OS(=O)(=O)CCC(F)(F)F)cc2)c1CO` (single isomer, unassigned) [Example 1, (−)3,3,3-Trifluoro-propane-1-sulfonic acid 4-[2-(2,4-dichloro-phenyl)-5-(2-hydroxy-cyclohexylcarbamoyl)-4-hydroxymethyl-2H-pyrazol-3-yl]-phenyl ester] has a pIC50 of 8.64.

Reference: patent US20100234438A1, “THERAPEUTIC AGENTS” (priority 2006, published 2010)
